Measurements reported in patent US9345691B2, “Beta-lactam compounds for enhancing T cell-mediated immune responses” (STEM CELL MEDICINE LTD., priority 2011, dated 2016).
Entries after “also recorded” stand apart in the source; their conditions may differ.

Experiments:
[1] = test system: NOD mice; assay: Autoimmune diabetes in NOD mice; format: in vivo, mouse
Protocol: NOD mice spontaneously develop diabetes mellitus similar to type I diabetes in humans. […] The mice were followed for the development of diabetes, marked by blood sugar above 300 mg/dl on 2 measurements.

[2] = test system: human CD3 T cells; assay: Pen 9 western blot of antibiotic-treated human T cells; format: cell-based; conditions: human T cells activated by mitogen in presence of the antibiotic
[3] = test system: experimental autoimmune encephalomyelitis (EAE) in rats; assay: Actively induced EAE; format: in vivo, rat; conditions: oral in drinking water from day 7 postinduction, daily dose 50 mg/kg, versus two control groups
[4] = test system: CD4+ human T cells; assay: Real-time PCR verification of six genes; format: cell-based; conditions: same RNA as gene array; cefuroxime 50 μg/ml
Protocol: To verify the results of the gene array, we synthesized real-time PCR primers (designed with the LightCycler probe design software (Roche)). Real-time PCR of 6 selected genes was performed using a LightCycler (Roche, Basel, Switzerland). RNA was reverse transcribed to cDNA from 1 μg of total RNA, which was then subjected to quantitative RT-PCR performed essentially according to the manufacturer's instructions. Specific primer pairs were used to amplify specific genes in the presence of 3 mM MgCl2. PCR was performed in triplicate in a total volume of 20 μl of LightCycler HotStart DNA SYBR Green I mix (Roche) containing primer and 5 μl of cDNA. […] Denaturation was performed for 15 s at 95° C., annealing was performed in 60° C., and the extension was performed at 72° C. for 20 s, with fluorescence detection at 72° C. after each cycle. After the final cycle, melting point analyses of all samples were performed within the range of 62-95° C. with continuous fluorescence detection. […]
The Human Autoimmune and Inflammatory Response Gene Array (SuperArray Bioscience corporation, Frederick, Md., USA) was used for analysis of gene expression by the T cells. […] To verify the results detected by the gene array study, a panel of six genes was designed and tested by real-time PCR: CCR4, ACVR2, JAK1, STAT4, TLR2 and NFKBIE. […]

[5] = test system: Adjuvant Arthritis (AA) in rats; assay: Adjuvant arthritis (AA); format: in vivo, rat; conditions: IP 5 mg (25 mg/kg) once every 2 or 3 days from day 12, versus non-injected control
Protocol: Heat-killed Mycobacterium tuberculosis (Mt) strain H37Ra (Difco) was finely ground using a pestle and mortar, and was suspended to a final concentration of 10 mg/ml in IFA. Test rats were injected at the base of the tail with a total of 100 μl of the Mt suspension. The day of AA induction was designated as day 0. Disease severity was assessed by direct observation of all four limbs in each animal. A relative score between 0 and 4 was assigned to each limb based on the degree of joint inflammation, redness, and deformity; thus, the maximum possible score for an individual animal was 16. The results are presented as the mean±SE of total score.
To test the effects of antibiotics in vivo, active experimental autoimmune encephalomyelitis (EAE) was induced in rats as described above, and the injected rats (4 per group) were treated with oral cefuroxime axetil in the drinking water from day 7 postinduction (“Oral T Cefurox.”). One 500 mg tablet was dissolved in 500 ml of drinking water. The daily dose was 50 mg/kg, in the range of therapeutic pediatric human doses. As a control, the intravenous cefuroxime sodium preparation, which is not absorbed into the circulation, was administered orally (“Oral inj. Cefurox.”). A second control group was given water without antibiotics (“Control”). […]

SMILES | effect on type I diabetes ([1]; NOD mice) | incidence of diabetes ([1]; NOD mice at 5.7 months, SC weekly, ampicillin 1300 μg, ceftriaxone 675 μg per mouse) | reactivity of Pen 9 antibody with lysates of treated T cells [2] | severity of actively induced EAE [3] | expression of CCR4, ACVR2, JAK1, STAT4, TLR2 and NFKBIE by real-time PCR [4] | arthritis scores [5]
CC1(C)S[C@@H]2[C@H](NC(=O)[C@H](N)c3ccccc3)C(=O)N2[C@H]1C(=O)O [ampicillin] | Inhibition of type I diabetes in NOD mice | 30% | did not bind |  |  | 
CO/N=C(\C(=O)N[C@@H]1C(=O)N2C(C(=O)O)=C(COC(N)=O)CS[C@H]12)c1ccco1 [cefuroxime] |  |  |  | increases the severity of actively induced EAE | suppressed | significantly more severe arthritis scores; also recorded: Exacerbation of adjuvant-induced arthritis
